pIC50: −log10 of the molar value.
Biological target: Complement factor D (Homo sapiens, UniProt P00746)
Test: Inhibition of recombinant human factor D expressed in Escherichia coli using Z-Lys-thiobenzyl and 2,4-dinitrobenzenesulfonyl-fluoresceine as substrate preincubated for 1 hr followed by substrate addition by spectrofluorimetric analysis

Complement factor D, sequence (P00746 whole entry): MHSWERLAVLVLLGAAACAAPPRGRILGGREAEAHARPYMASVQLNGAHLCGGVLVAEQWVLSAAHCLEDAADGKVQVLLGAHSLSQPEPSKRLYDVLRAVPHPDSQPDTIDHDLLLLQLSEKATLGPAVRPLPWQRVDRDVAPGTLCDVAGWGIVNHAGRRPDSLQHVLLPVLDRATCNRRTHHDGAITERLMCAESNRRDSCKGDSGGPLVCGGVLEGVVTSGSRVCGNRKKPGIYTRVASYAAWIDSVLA

For `NC(=O)c1nn(CC(=O)N2[C@@H]3C[C@@H]3C[C@H]2C(=O)Nc2cccc(Br)n2)c2cnc(CF)cc12`, the pIC50 was 8.70.
